Source: paper PMC10777851, “SMT-738: a novel small-molecule inhibitor of bacterial lipoprotein transport targeting Enterobacteriaceae” (Antimicrobial Agents and Chemotherapy, 2023)
Several values for one entry are separate records, joined by “and”; a condition that tells them apart may be missing. Equal values may be shown once.

Tests used:
[1] = Cytotoxicity assay, positive control (cell line not stated); type: cell-based; conditions: human
[2] = system: two respiratory isolates (carrying NDM-5 and TEM-OSBL) from Russia in 2019; conditions: both isolates, reported to be resistant to cefiderocol; cited from earlier work
K. pneumoniae = test: MIC by broth microdilution (CLSI) against K. pneumoniae; type: cell-based, Klebsiella pneumoniae
Experimental: (§1) MIC tests were performed by broth microdilution in-line with CLSI susceptibility testing standards ([20], [21]) either in-house or at IHMA (Europe and USA) or JMI Laboratories using cation-adjusted Mueller Hinton Broth.

E. coli = test: MIC by broth microdilution (CLSI) against E. coli; type: cell-based, Escherichia coli
Experimental: as §1

[3] = 15 clinical MDR NDM isolates (NDM-1, NDM-4, NDM-5) from India (2018)
[4] = 100 MDR clinical isolates incl. ESBL and CRE

CSc1ccc2c(c1)N(CCC1CCCCN1C)c1ccccc1S2 (centres unmarked) [Thioridazine]
IC50 at 24 h [1]: 22.1 µM and 8.19 µg/mL

CC(C)(O/N=C(\C(=O)N[C@@H]1C(=O)N2C(C(=O)[O-])=C(C[N+]3(CCNC(=O)c4ccc(O)c(O)c4Cl)CCCC3)CS[C@H]12)c1csc(N)n1)C(=O)O [cefiderocol]
MIC [2]: > 64 µg/mL

Colistin [reference compound]
MIC Range K. pneumoniae (NDM) (K. pneumoniae; [3]): 1 to 32 µg/mL | MIC50 K. pneumoniae (K. pneumoniae; [4]): 0.5 µg/mL | MIC90 K. pneumoniae (K. pneumoniae; [4]): 16 µg/mL | MIC (K. pneumoniae; K. pneumoniae NCTC 13438 (MDR, Class A KPC)): 1.56 µM and 1.80 µg/mL | MIC Range E. coli (NDM) (E. coli; [3]): 0.5 to 1 µg/mL | MIC50 E. coli (E. coli; [4]): 0.5 µg/mL | MIC90 E. coli (E. coli; [4]): 0.5 µg/mL | MIC range E. coli (E. coli; [4]): 0.25 to 8 µg/mL | MIC (E. coli; E. coli NCTC 13441 (UPEC, MDR, CTX-M-15 ESBL)): 0.16 µM and 0.18 µg/mL
